We go through 1 compound from PMC5218480 (PLoS ONE, 2017).

The test system of the assay is MV-4-11 cells. The assay is described as follows: Gene expression microarray analysis (Affymetrix PrimeView) and GSEA. Format: cell-based, human. Details: RFU PODN (11730768_x_at) / Fold change /veh PODN (11730768_x_at) / RFU LINC00158 (11744669_a_at) / Fold change /veh LINC00158 (11744669_a_at) / RFU DUSP10 (11751237_a_at) / Fold change /veh DUSP10 (11751237_a_at) / RFU ID3 (11757404_x_at) / Fold change /veh ID3 (11757404_x_at) / RFU PLEKHG5 (11737974_s_at) / Fold change /veh PLEKHG5 (11737974_s_at) / RFU LRRC4B (11730491_at) / Fold change /veh LRRC4B (11730491_at) / RFU GIMAP4 (11747438_a_at) / Fold change /veh GIMAP4 (11747438_a_at) / RFU KRT8 (11758183_x_at) / Fold change /veh KRT8 (11758183_x_at) / RFU CNN1 (11734310_a_at) / Fold change /veh CNN1 (11734310_a_at) / RFU VPS37D (11726825_at) / Fold change /veh VPS37D (11726825_at) / RFU C10orf10 (11716522_x_at) / Fold change /veh C10orf10 (11716522_x_at) / RFU KIR2DL2 /// KIR2DL4 /// KIR2DL5A /// KIR2DL5B /// KIR2DS1 /// KIR2DS2 /// KIR2DS3 /// KIR2DS4 /// KIR3DL3 /// KIR3DL3 /// KIR3DS1 (11738374_at) / Fold change /veh KIR2DL2 /// KIR2DL4 /// KIR2DL5A /// KIR2DL5B /// KIR2DS1 /// KIR2DS2 /// KIR2DS3 /// KIR2DS4 /// KIR3DL3 /// KIR3DL3 /// KIR3DS1 (11738374_at) / RFU C1QL1 (11718748_at) / Fold change /veh C1QL1 (11718748_at) / RFU TMPRSS4 (11747572_a_at) / Fold change /veh TMPRSS4 (11747572_a_at) / RFU HAMP (11756126_x_at) / Fold change /veh HAMP (11756126_x_at) / RFU RNFT2 (11725882_a_at) / Fold change /veh RNFT2 (11725882_a_at) / RFU NR4A2 (11747474_a_at) / Fold change /veh NR4A2 (11747474_a_at) / RFU ABCC12 (11746883_a_at) / Fold change /veh ABCC12 (11746883_a_at) / RFU TMEM136 (11760407_x_at) / Fold change /veh TMEM136 (11760407_x_at) / RFU CLDN22 /// WWC2 (11732394_at) / Fold change /veh CLDN22 /// WWC2 (11732394_at) / RFU HLA-DPB1 (11760878_x_at) / Fold change /veh HLA-DPB1 (11760878_x_at) / RFU SPINT1 (11716480_a_at) / Fold change /veh SPINT1 (11716480_a_at) / RFU GAP43 (11754022_s_at) / Fold change /veh GAP43 (11754022_s_at) / RFU A4GNT (11735810_at) / Fold change /veh A4GNT (11735810_at) / RFU PRB3 (11715151_x_at) / Fold change /veh PRB3 (11715151_x_at) / RFU TUBB4B (11761932_at) / Fold change /veh TUBB4B (11761932_at) / RFU CAPN14 (11732068_a_at) / Fold change /veh CAPN14 (11732068_a_at) / RFU TMCC2 (11721928_a_at) / Fold change /veh TMCC2 (11721928_a_at) / RFU IRGQ (11745062_a_at) / Fold change /veh IRGQ (11745062_a_at) / RFU FAM174B (11720279_a_at) / Fold change /veh FAM174B (11720279_a_at) / RFU TMPRSS4 (11748680_a_at) / Fold change /veh TMPRSS4 (11748680_a_at) / RFU FAM212B (11763350_a_at) / Fold change /veh FAM212B (11763350_a_at) / RFU PLEKHG5 (11743358_a_at) / Fold change /veh PLEKHG5 (11743358_a_at) / RFU ZSCAN30 (11745921_a_at) / Fold change /veh ZSCAN30 (11745921_a_at) / RFU CMKLR1 (11741424_a_at) / Fold change /veh CMKLR1 (11741424_a_at) / RFU LOC101060620 /// MAPK8IP1 (11723275_at) / Fold change /veh LOC101060620 /// MAPK8IP1 (11723275_at) / RFU SPTSSB (11747773_x_at) / Fold change /veh SPTSSB (11747773_x_at) / RFU PRSS12 (11739890_at) / Fold change /veh PRSS12 (11739890_at) / RFU BIN1 (11741810_x_at) / Fold change /veh BIN1 (11741810_x_at) / RFU WNT11 (11732464_a_at) / Fold change /veh WNT11 (11732464_a_at) / RFU C10orf10 (11716521_a_at) / Fold change /veh C10orf10 (11716521_a_at) / RFU C5orf56 (11738089_at) / Fold change /veh C5orf56 (11738089_at) / RFU CYB561 (11721691_x_at) / Fold change /veh CYB561 (11721691_x_at) / RFU ANKRD19P (11752326_a_at) / Fold change /veh ANKRD19P (11752326_a_at) / RFU OR2T12 /// OR2T33 /// OR2T8 (11738714_s_at) / Fold change /veh OR2T12 /// OR2T33 /// OR2T8 (11738714_s_at) / RFU VCAN (11748164_a_at) / Fold change /veh VCAN (11748164_a_at) / RFU JSRP1 (11732532_at) / Fold change /veh JSRP1 (11732532_at) / RFU KRTAP10-11 (11738290_x_at) / Fold change /veh KRTAP10-11 (11738290_x_at) / RFU MYO3A (11730013_a_at) / Fold change /veh MYO3A (11730013_a_at) / RFU EBF3 (11725865_a_at) / Fold change /veh EBF3 (11725865_a_at) / RFU CAMK2N1 (11719241_x_at) / Fold change /veh CAMK2N1 (11719241_x_at) / RFU C5orf56 (11738088_a_at) / Fold change /veh C5orf56 (11738088_a_at) / RFU OLFML3 (11715873_a_at) / Fold change /veh OLFML3 (11715873_a_at) / RFU LOC100653217 /// NTM (11731650_a_at) / Fold change /veh LOC100653217 /// NTM (11731650_a_at) / RFU MAPK11 (11762145_a_at) / Fold change /veh MAPK11 (11762145_a_at) / RFU FIZ1 (11724087_x_at) / Fold change /veh FIZ1 (11724087_x_at) / RFU OASL (11726364_x_at) / Fold change /veh OASL (11726364_x_at) / RFU SOX15 (11748057_x_at) / Fold change /veh SOX15 (11748057_x_at) / RFU CD79A (11719716_a_at) / Fold change /veh CD79A (11719716_a_at) / RFU HIST1H1D (11736915_at) / Fold change /veh HIST1H1D (11736915_at) / RFU CASKIN2 (11723855_a_at) / Fold change /veh CASKIN2 (11723855_a_at) / RFU LOC730098 (11760151_x_at) / Fold change /veh LOC730098 (11760151_x_at) / RFU OR4N2 (11742367_at) / Fold change /veh OR4N2 (11742367_at) / RFU PRRT2 (11749266_a_at) / Fold change /veh PRRT2 (11749266_a_at) / RFU SNX32 (11753110_a_at) / Fold change /veh SNX32 (11753110_a_at) / RFU CDHR5 (11726645_a_at) / Fold change /veh CDHR5 (11726645_a_at) / RFU RCAN1 (11760418_a_at) / Fold change /veh RCAN1 (11760418_a_at) / RFU FAM167A (11723789_a_at) / Fold change /veh FAM167A (11723789_a_at) / RFU FAM26E (11764081_at) / Fold change /veh FAM26E (11764081_at) / RFU ISYNA1 (11749810_s_at) / Fold change /veh ISYNA1 (11749810_s_at) / RFU ACY1 (11761880_at) / Fold change /veh ACY1 (11761880_at) / RFU 11764098_at / Fold change /veh 11764098_at / RFU SAMD14 (11745864_x_at) / Fold change /veh SAMD14 (11745864_x_at) / RFU NPB (11741838_a_at) / Fold change /veh NPB (11741838_a_at) / RFU TMPRSS6 (11731388_a_at) / Fold change /veh TMPRSS6 (11731388_a_at) / RFU KRTAP10-2 (11738614_at) / Fold change /veh KRTAP10-2 (11738614_at) / RFU ARHGAP8 /// PRR5-ARHGAP8 (11727945_x_at) / Fold change /veh ARHGAP8 /// PRR5-ARHGAP8 (11727945_x_at) / RFU KRTAP5-7 /// NADSYN1 (11734609_at) / Fold change /veh KRTAP5-7 /// NADSYN1 (11734609_at) / RFU RASL12 (11751679_a_at) / Fold change /veh RASL12 (11751679_a_at) / RFU CDKN2B (11736163_a_at) / Fold change /veh CDKN2B (11736163_a_at) / RFU PRF1 (11729649_at) / Fold change /veh PRF1 (11729649_at) / RFU, ZNF638 /// ZNF638-IT1 / Fold change vs veh, ZNF638 /// ZNF638-IT1 / RFU, PANK3 / Fold change vs veh, PANK3 / RFU, SH3YL1 / Fold change vs veh, SH3YL1 / RFU, ZEB2 / Fold change vs veh, ZEB2 / RFU, NRIP1 / Fold change vs veh, NRIP1 / RFU, PTTG1IP / Fold change vs veh, PTTG1IP / RFU, CAPN2 / Fold change vs veh, CAPN2 / RFU, MED14 / Fold change vs veh, MED14 / RFU, SNORA58 / Fold change vs veh, SNORA58 / RFU, C1orf63 / Fold change vs veh, C1orf63 / RFU, LRRFIP1 / Fold change vs veh, LRRFIP1 / RFU, NDUFAF7 / Fold change vs veh, NDUFAF7 / RFU, SLC12A2 / Fold change vs veh, SLC12A2 / RFU, IBTK / Fold change vs veh, IBTK / RFU, ESF1 / Fold change vs veh, ESF1 / Fold change vs veh, TMEM50B / RFU, TAOK1 / Fold change vs veh, TAOK1 / RFU, ACBD3 / Fold change vs veh, ACBD3 / RFU, TMA16 / Fold change vs veh, TMA16 / RFU, RWDD3 / Fold change vs veh, RWDD3 / RFU, BCAT1 / Fold change vs veh, BCAT1 / RFU, EDEM3 / Fold change vs veh, EDEM3 / RFU, TMEM33 / Fold change vs veh, TMEM33 / RFU, WDR75 / Fold change vs veh, WDR75 / RFU, AHCTF1 / Fold change vs veh, AHCTF1 / RFU, TFRC / Fold change vs veh, TFRC / RFU, ZDHHC17 / Fold change vs veh, ZDHHC17 / RFU, NOM1 / Fold change vs veh, NOM1 / RFU, ARL8B / Fold change vs veh, ARL8B / RFU, ZBTB11 / Fold change vs veh, ZBTB11 / RFU, TAMM41 / Fold change vs veh, TAMM41 / RFU, KIAA1704 /// LOC100996395 / Fold change vs veh, KIAA1704 /// LOC100996395 / RFU, ING1 / Fold change vs veh, ING1 / RFU, TRMT61B / Fold change vs veh, TRMT61B / RFU, FUBP3 / Fold change vs veh, FUBP3 / RFU, TP53 / Fold change vs veh, TP53 / RFU, TNKS2 / Fold change vs veh, TNKS2 / RFU, ZFP14 / Fold change vs veh, ZFP14 / RFU, ACTR2 / Fold change vs veh, ACTR2 / RFU, PPP3R1 / Fold change vs veh, PPP3R1 / RFU, PIK3R1 / Fold change vs veh, PIK3R1 / RFU, HNRNPA1 / Fold change vs veh, HNRNPA1 / RFU, RNF170 / Fold change vs veh, RNF170 / RFU, ZNF28 / Fold change vs veh, ZNF28 / RFU, RNGTT / Fold change vs veh, RNGTT / RFU, OGT / Fold change vs veh, OGT / RFU, BRD1 / Fold change vs veh, BRD1 / RFU, MARS / Fold change vs veh, MARS / RFU, ZNF655 / Fold change vs veh, ZNF655 / RFU, FAHD1 / Fold change vs veh, FAHD1 / RFU, BDP1 / Fold change vs veh, BDP1 / RFU, LRRCC1 / Fold change vs veh, LRRCC1 / RFU, ARID1A / Fold change vs veh, ARID1A / RFU, ZNF146 / Fold change vs veh, ZNF146 / RFU, ZNF330 / Fold change vs veh, ZNF330 / RFU, GPN3 / Fold change vs veh, GPN3 / RFU, C9orf123 / Fold change vs veh, C9orf123 / RFU, N4BP2L2 / Fold change vs veh, N4BP2L2 / RFU, ARFIP1 / Fold change vs veh, ARFIP1 / RFU, FAM179B / Fold change vs veh, FAM179B / RFU, BCL10 / Fold change vs veh, BCL10 / RFU, UHRF1BP1L / Fold change vs veh, UHRF1BP1L / RFU, BET1 / Fold change vs veh, BET1 / RFU, CNOT2 / Fold change vs veh, CNOT2 / RFU, ZNF268 / Fold change vs veh, ZNF268 / Fold change vs veh, ZNF507 / RFU, DGCR2 / Fold change vs veh, DGCR2 / RFU, WDSUB1 / Fold change vs veh, WDSUB1 / Fold change vs veh, HSP90B1 /// MIR3652 / RFU, ADSS / Fold change vs veh, ADSS / RFU, GK / Fold change vs veh, GK / RFU, ZNF148 / Fold change vs veh, ZNF148 / RFU, TAF9 / Fold change vs veh, TAF9 / RFU, SLC1A5 / Fold change vs veh, SLC1A5 / RFU, SLMO2 / Fold change vs veh, SLMO2 / RFU, ABCC4 / Fold change vs veh, ABCC4 / RFU, LOC101060439 /// RAP1B / Fold change vs veh, LOC101060439 /// RAP1B / RFU, RFX7 / Fold change vs veh, RFX7 / RFU, GTPBP10 / Fold change vs veh, GTPBP10 / RFU, CNEP1R1 / Fold change vs veh, CNEP1R1 / RFU, BIVM-ERCC5 /// ERCC5 / Fold change vs veh, BIVM-ERCC5 /// ERCC5 / RFU, ILF3 / Fold change vs veh, ILF3 / RFU 11762660_at / Fold change /veh 11762660_at / RFU VCAN (11757783_s_at) / Fold change /veh VCAN (11757783_s_at) / RFU DDX43 (11728927_at) / Fold change /veh DDX43 (11728927_at) / RFU KRT8 (11758188_x_at) / Fold change /veh KRT8 (11758188_x_at) / RFU NKD1 (11759106_at) / Fold change /veh NKD1 (11759106_at) / RFU SRD5A1 (11742802_a_at) / Fold change /veh SRD5A1 (11742802_a_at) / RFU TPSAB1 /// TPSB2 (11721975_s_at) / Fold change /veh TPSAB1 /// TPSB2 (11721975_s_at) / RFU GSTM3 (11746129_a_at) / Fold change /veh GSTM3 (11746129_a_at) / RFU IL23R (11737362_x_at) / Fold change /veh IL23R (11737362_x_at) / RFU TMEM51 (11727254_a_at) / Fold change /veh TMEM51 (11727254_a_at) / RFU PIWIL2 (11732686_x_at) / Fold change /veh PIWIL2 (11732686_x_at) / RFU ORM1 (11744905_x_at) / Fold change /veh ORM1 (11744905_x_at) / RFU CCDC152 (11743942_at) / Fold change /veh CCDC152 (11743942_at) / RFU ECM1 (11717891_a_at) / Fold change /veh ECM1 (11717891_a_at) / RFU IL23R (11748794_a_at) / Fold change /veh IL23R (11748794_a_at) / RFU TNFAIP8L3 (11732012_x_at) / Fold change /veh TNFAIP8L3 (11732012_x_at) / RFU MBOAT4 (11741988_at) / Fold change /veh MBOAT4 (11741988_at) / RFU 11764193_at / Fold change /veh 11764193_at / RFU TMEM53 (11763286_at) / Fold change /veh TMEM53 (11763286_at) / RFU MAGEB2 (11727129_at) / Fold change /veh MAGEB2 (11727129_at) / RFU TMEM200A (11744735_a_at) / Fold change /veh TMEM200A (11744735_a_at) / RFU CCDC152 (11751479_a_at) / Fold change /veh CCDC152 (11751479_a_at) / RFU FAM211A (11726209_a_at) / Fold change /veh FAM211A (11726209_a_at) / RFU RGS16 (11746705_a_at) / Fold change /veh RGS16 (11746705_a_at) / RFU VCAN (11755009_s_at) / Fold change /veh VCAN (11755009_s_at) / RFU RHOB (11743442_s_at) / Fold change /veh RHOB (11743442_s_at) / RFU RGS16 (11720943_a_at) / Fold change /veh RGS16 (11720943_a_at) / RFU RGS16 (11720944_at) / Fold change /veh RGS16 (11720944_at) / RFU, VPS4B / Fold change vs veh, VPS4B / RFU, CREB1 / Fold change vs veh, CREB1 / RFU, DNAJC13 / Fold change vs veh, DNAJC13 / RFU, GNAQ / Fold change vs veh, GNAQ / RFU, CDK5R1 / Fold change vs veh, CDK5R1 / RFU, ZRANB3 / Fold change vs veh, ZRANB3 / RFU, CUL4A / Fold change vs veh, CUL4A / RFU, CCNY / Fold change vs veh, CCNY / RFU, UFL1 / Fold change vs veh, UFL1 / RFU, COG3 / Fold change vs veh, COG3 / RFU, DIAPH2 / Fold change vs veh, DIAPH2 / RFU, SKA2 / Fold change vs veh, SKA2 / RFU, AFF3 / Fold change vs veh, AFF3 / RFU, LMF1 / Fold change vs veh, LMF1 / RFU, IPO11 / Fold change vs veh, IPO11 / RFU, DFFB / Fold change vs veh, DFFB / RFU, FOXP1 / Fold change vs veh, FOXP1 / RFU, CARD8 / Fold change vs veh, CARD8 / RFU, STRN3 / Fold change vs veh, STRN3 / RFU, ADK / Fold change vs veh, ADK / RFU, RASSF2 / Fold change vs veh, RASSF2 / RFU, WIPF1 / Fold change vs veh, WIPF1 / RFU, LARP1B / Fold change vs veh, LARP1B / RFU, RASA1 / Fold change vs veh, RASA1 / RFU, RB1 / Fold change vs veh, RB1 / RFU, PPFIA1 / Fold change vs veh, PPFIA1 / RFU, MAT2A / Fold change vs veh, MAT2A / RFU, CCT5 / Fold change vs veh, CCT5 / RFU, WDR92 / Fold change vs veh, WDR92 / RFU, CUX1 / Fold change vs veh, CUX1 / RFU, TTC7A / Fold change vs veh, TTC7A / RFU, TMEM135 / Fold change vs veh, TMEM135 / RFU, DEPTOR / Fold change vs veh, DEPTOR / RFU, CPM / Fold change vs veh, CPM / RFU, DNAJB6 / Fold change vs veh, DNAJB6 / RFU, CACNA2D3 / Fold change vs veh, CACNA2D3 / RFU, DTX4 / Fold change vs veh, DTX4 / RFU, TFCP2 / Fold change vs veh, TFCP2 / RFU, GMCL1 /// GMCL1P1 / Fold change vs veh, GMCL1 /// GMCL1P1 / RFU, AEBP2 / Fold change vs veh, AEBP2 / RFU, SNHG1 /// SNORD22 /// SNORD25 /// SNORD26 /// SNORD27 /// SNORD28 /// SNORD29 /// SNORD31 / Fold change vs veh, SNHG1 /// SNORD22 /// SNORD25 /// SNORD26 /// SNORD27 /// SNORD28 /// SNORD29 /// SNORD31 / Fold change (Aza/veh), C12orf56 (ProbeSet 11735607_a_at) / Fold change (ACY-1035/veh), C12orf56 (ProbeSet 11735607_a_at) / Fold change (Aza/veh), FGFR1OP (ProbeSet 11751329_s_at) / Fold change (ACY-1035/veh), FGFR1OP (ProbeSet 11751329_s_at) / Fold change (Aza/veh), VPS36 (ProbeSet 11739960_a_at) / Fold change (ACY-1035/veh), VPS36 (ProbeSet 11739960_a_at) / RFU SYPL1 (11715823_x_at) / Fold change /veh SYPL1 (11715823_x_at) / RFU IGFBP7 (11715501_s_at) / Fold change /veh IGFBP7 (11715501_s_at) / RFU REEP3 (11722064_at) / Fold change /veh REEP3 (11722064_at) / RFU IGLL1 (11728026_x_at) / Fold change /veh IGLL1 (11728026_x_at): dose or concentration left out as unconfirmed. The conditions noted are these: ProbeSet 11717876_a_at; LIST D.

SMILES strings stand for the structures.

Turning to `Nc1ncn([C@@H]2O[C@H](CO)[C@@H](O)[C@H]2O)c(=O)n1` [azacitidine], the “RFU, PPFIA1” value is recorded as 24.22 RFU.
